Assay results as given in paper PMC11596972, “Synthesis and Antimicrobial Activity of 3-Alkylidene-2-Indolone Derivatives” (Molecules, 2024).
Converted amounts (≈) assume the structure as drawn. Where two headings read alike, the source gives them in different places.

Legend:
P. aeruginosa CMCC 10211 = assay: MIC, double dilution method, P. aeruginosa CMCC 10211; type: cell-based; conditions: Pseudomonas aeruginosa
E. coli 1924 = assay: MIC, double dilution method, E. coli 1924; type: cell-based, Escherichia coli
S. aureus 4220 = assay: MIC, double dilution method, S. aureus 4220; type: cell-based; conditions: Staphylococcus aureus, 4220, 24 h
C. albicans CMCC 98001 = assay: MIC, double dilution method, C. albicans CMCC 98001; type: cell-based, Candida albicans; conditions: for MIC: C. albicans CMCC 98001, fungus, 24 h culture; for antifungal activity (class in words): C. albicans CMCC 98001
S. aureus ATCC 6538 = assay: MIC, double dilution method, S. aureus ATCC 6538; type: cell-based; conditions: Staphylococcus aureus, ATCC6538, 24 h
E. coli ATCC 25922 = assay: MIC, double dilution method, E. coli ATCC 25922; type: cell-based; conditions: Escherichia coli
MRSA ATCC 43300 = assay: MIC, double dilution method, MRSA ATCC 43300; type: cell-based, Methicillin-resistant Staphylococcus aureus; conditions: MRSA ATCC 43300, Gram-positive, 24 h culture
[1] = CMCC10211, P. aeruginosa CMCC 10211, Gram-negative, 24 h culture, read-out: MIC
[2] = Escherichia coli, E. coli 1924, Gram-negative, 24 h culture, read-out: MIC
[3] = S. aureus 4220, Gram-positive, 24 h culture, read-out: MIC
[4] = Candida albicans, CMCC98001, 24 h, read-out: MIC
[5] = S. aureus ATCC 6538, Gram-positive, 24 h culture, read-out: MIC
[6] = ATCC25922, E. coli ATCC 25922, Gram-negative, 24 h culture, read-out: MIC
[7] = Staphylococcus aureus, 24 h, read-out: MIC
[8] = Candida albicans, CMCC98001, 24 h

| SMILES | MIC (P. aeruginosa CMCC 10211; [1]) [µg/mL] | MIC (E. coli 1924; [2]) [µg/mL] | MIC (S. aureus 4220; [3]) [µg/mL] | MIC (C. albicans CMCC 98001; [4]) [µg/mL] | MIC (S. aureus ATCC 6538; [5]) [µg/mL] | MIC (E. coli ATCC 25922; [6]) [µg/mL] | MIC (MRSA ATCC 43300; [7]) [µg/mL] | antifungal activity (class in words) (C. albicans CMCC 98001) | MIC (C. albicans CMCC 98001) [µg/mL] | MIC (P. aeruginosa CMCC 10211; CMCC10211, 24 h) [µg/mL] | MIC (E. coli 1924; Escherichia coli, 1924, 24 h) [µg/mL] | MIC (S. aureus 4220) [µg/mL] | MIC (C. albicans CMCC 98001; [8]) [µg/mL] | MIC (S. aureus ATCC 6538) [µg/mL] | MIC (MRSA ATCC 43300; Staphylococcus aureus, 24 h) [µg/mL] | MIC (E. coli ATCC 25922; ATCC25922, 24 h) [µg/mL] | MIC (MRSA ATCC 43300) [µg/mL] | MIC (MRSA ATCC 43300; listed as 10v) [µg/mL] |
| --- | --- | --- | --- | --- | --- | --- | --- | --- | --- | --- | --- | --- | --- | --- | --- | --- | --- | --- |
| CCCN1C(=O)/C(=C(/C)O)c2ccccc21 [Compound 5v, (Z)-3-(1-hydroxyethylidene)-1-propylindolin-2-one] | > 64 | 16 (≈ 73.6 µM) | 64 (≈ 295 µM) | 32 (≈ 147 µM) | 64 (≈ 295 µM) | > 64 | – | – | – | – | – | – | – | – | – | – | – | – |
| OC(Cn1cncn1)(Cn1cncn1)c1ccc(F)cc1F [Flu, Fluconazole, reference compound] | > 64 | > 64 | > 64 | 2 (≈ 6.53 µM) | > 64 | > 64 | > 64 | – | – | – | – | – | – | – | – | – | – | – |
| C/C(O)=C1/C(=O)N(C)c2ccc(C#N)cc21 [Compound 5p, (Z)-3-(1-hydroxyethylidene)-1-methyl-2-oxoindoline-5-carbonitrile] | > 64 | > 64 | 64 (≈ 299 µM) | > 64 | 64 (≈ 299 µM) | > 64 | > 64 | – | – | – | – | – | – | – | – | – | – | – |
| C/C(O)=C1/C(=O)N(C)c2cccc(F)c21 [Compound 5h, (Z)-4-fluoro-3-(1-hydroxyethylidene)-1-methylindolin-2-one] | > 64 | 32 (≈ 154 µM) | 64 (≈ 309 µM) | 8 to 16 (≈ 38.6 to 77.2 µM) | > 64 | > 64 | > 64 | moderate antifungal activity | 16 (≈ 77.2 µM) | – | – | – | – | – | – | – | – | – |
| C/C(O)=C1/C(=O)N(C)c2ccc(C(F)(F)F)cc21 [Compound 5q, (Z)-3-(1-hydroxyethylidene)-1-methyl-5-(trifluoromethyl)indolin-2-one] | > 64 | 16 (≈ 62.2 µM) | 64 (≈ 249 µM) | > 64 | – | > 64 | > 64 | – | – | – | – | – | – | – | – | – | – | – |
| C/C(O)=C1/C(=O)N(C)c2ccc(C)cc21 [Compound 5d, (Z)-3-(1-hydroxyethylidene)-1,5-dimethylindolin-2-one] | 64 (≈ 315 µM) | 2 (≈ 9.84 µM) | – | – | 64 (≈ 315 µM) | > 64 | > 64 | moderate antifungal activity | – | – | – | – | – | – | – | – | – | – |
| CN1C(=O)/C(=C(\O)c2ccc(Cl)cc2)c2ccccc21 [Compound 10e, (Z)-3-((4-chlorophenyl)(hydroxy)methylene)-1-methylindolin-2-one] | – | – | – | – | – | – | – | – | – | > 64 | 8 (≈ 28 µM) | 8 (≈ 28 µM) | 64 (≈ 224 µM) | 2 (≈ 7 µM) | 16 (≈ 56 µM) | 64 (≈ 224 µM) | – | – |
| CCN1C(=O)/C(=C(/C)O)c2ccccc21 [Compound 5t, (Z)-1-ethyl-3-(1-hydroxyethylidene) indolin-2-one] | > 64 | 32 (≈ 157 µM) | > 64 | 32 (≈ 157 µM) | 64 (≈ 315 µM) | > 64 | > 64 | – | – | – | – | – | – | – | – | – | – | – |
| C/C(O)=C1/C(=O)N(C)c2ccc(Cl)cc21 [Compound 5k, (Z)-5-chloro-3-(1-hydroxyethylidene)-1-methylindolin-2-one] | > 64 | 1 (≈ 4.47 µM) | – | 32 (≈ 143 µM) | 16 (≈ 71.5 µM) | > 64 | > 64 | – | – | – | – | – | – | – | – | – | – | – |
| COc1ccc2c(c1)/C(=C(\C)O)C(=O)N2Cc1ccccc1 [Compound 5s, (Z)-1-benzyl-3-(1-hydroxyethylidene)-5-methoxyindolin-2-one] | > 64 | 16 (≈ 54.2 µM) | 32 (≈ 108 µM) | > 64 | 64 (≈ 217 µM) | > 64 | 64 (≈ 217 µM) | – | – | – | – | – | – | – | – | – | – | – |
| Cc1ccc(/C(O)=C2/C(=O)N(C)c3ccccc32)cc1 [Compound 10c, (Z)-3-(hydroxy(p-tolyl)methylene)-1-methylindolin-2-one] | – | – | – | – | – | – | – | – | – | > 64 | 8 (≈ 30.2 µM) | 8 (≈ 30.2 µM) | 64 (≈ 241 µM) | 2 (≈ 7.54 µM) | – | 64 (≈ 241 µM) | 16 (≈ 60.3 µM) | 0.5 to 16 |
| C/C(O)=C1/C(=O)N(Cc2ccccc2)c2ccccc21 [Compound 5u, (Z)-1-benzyl-3-(1-hydroxyethylidene)indolin-2-one] | > 64 | 2 (≈ 7.54 µM) | – | 32 (≈ 121 µM) | – | 64 (≈ 241 µM) | 64 (≈ 241 µM) | – | – | – | – | – | – | – | – | – | – | – |
| C/C(O)=C1/C(=O)N(C)c2c(Cl)cccc21 [Compound 5i, (Z)-7-chloro-3-(1-hydroxyethylidene)-1-methylindolin-2-one] | 64 (≈ 286 µM) | 8 (≈ 35.8 µM) | 32 (≈ 143 µM) | 64 (≈ 286 µM) | 32 (≈ 143 µM) | > 64 | 64 (≈ 286 µM) | – | – | – | – | – | – | – | – | – | – | – |
